Reference: patent US9636289B2, “Composition for preventing or treating hair loss or promoting hair growth comprising secoiridoid glucoside derivatives” (priority 2012, dated 2017)
Entries after “also recorded” stand apart in the source; their conditions may differ.

Key:
[1] = Measurement on changes in body weight; format: in vivo, mouse; conditions: initial body weights and at 6 weeks; vs negative control group (Con)
Description: 12 of 6-week-old male C57BL/6N mice (Orientbio) were adapted to the environment for 2 weeks. Then, they were divided into total 3 groups, the negative control group (Con), the positive control group (MXD) and oleuropein group (Ole), and used for test. The environment for animals were maintained at 21±2.0° C. and relative humidity 50±5% under 12 hours light/dark cycle. They were fed a food (chow) and water with free access.
In order to verify an effect for promoting hair growth, 8-week-old mice in telogen were used for test. Hairs of their back were removed using a clipper for mouse. They were subcutaneously injected with 0.1 mL of sample at the part, everyday. Before subcutaneous injection, the test substance oleuropein (0.8 mg/0.1 mL) and the control drug minoxidil were dissolved in corn oil to use. The negative control group was subcutaneously injected with only vehicle (corn oil). The application was performed once, every P.M. 4:00 for 6 weeks. […] To assess level of hair growth, the hair length was measured using ruler.
Body weight was measured weekly during entire test period, from the point before the subcutaneous injection of the hair restorers to the end point of the subcutaneous injection of the hair restorers.

[2] = test system: hair follicles; assay: Histological analysis of the back skin (hair growth cycle, hair follicles); format: in vivo, mouse; conditions: for Anagen ratio / anagen phases observed (number of cases): 4 animals per group
Description: At 6 weeks after subcutaneous injection, mice were sacrificed. Their back skin tissue samples were isolated using scissors and forceps and fixed by formalin. After dehydration with serial alcohol and xylene, the tissues were paraffinized. Paraffinized tissues were sectioned using a microtomb in a thickness of 5 μm and used alcohol and xylene to remove paraffin. Then, the tissues were stained with hematoxyline/eosin, followed by observation of histological changes in hair follicles under an optical microscope. The hair growth cycles in the tissues were pathologically diagnosed by specialists, and quantity and diameter of hair follicle were measured under an optical microscope.

[3] = test system: LRP5 (low-density lipoprotein receptor-related protein 5); assay: RT-PCR gene expression in back skin tissue, LRP5; format: in vivo, mouse; conditions: 6 weeks s.c., compared to the negative control group
Description: (§1) After adding 1 mL of Trizol agent to 50-100 mg of test animal skin tissues, the mixture was homogenized and centrifuged at 12,000×g for 10 min at 4° C. The supernatant was transferred to a new tube to remove fat layer. Then, 200 μl of chloroform was added to the tube, followed by vortexing. The same procedure was repeated twice and then the supernatant was transferred to a new tube, followed by addition of isopropanol and the supernatant at 1:1 ratio. The mixture was vigorously shaken 10 times and then incubated for 10 min at room temperature, followed by centrifugation at 12,000×g for 10 min at 4° C. to remove the supernatant. After adding 1 mL of 70% ethanol to the remaining pellet, it was centrifuged at 7,500×g for 5 min at 4° C. After removing the ethanol, the RNA pellet contained in the tube was dried for 5 min at 4° C. and dissolved in nuclease-free water. The RNA sample concentration was measured at a wavelength of 260 nm and 280 nm using a UV/VIS spectrophotometer (Beckman coulter, DU730) and the integrity of RNA sample was verified by agarose gel electrophoresis.
(§2) The RNA sample obtained was trasnscribed using oligo dT primer and SuperScript reverse transcriptase (GIBCO BRL, Gaithersburg, Md., USA) to synthesize cDNA. The PCR amplification was performed using the cDNA as templates and primers complementary to cDNA 5′ and 3′ flanking sequence. […]

[4] = test system: IGF1 (insulin-like growth factor 1); assay: RT-PCR gene expression in back skin tissue, IGF1; format: in vivo, mouse; conditions: 6 weeks s.c., compared to the negative control group, FIG. 5
Description: as §1, §2

[5] = test system: IGF1; assay: Immunohistochemical test on skin tissue, IGF1; format: in vivo, mouse; conditions: 6 weeks s.c., FIG. 4
Description: (§3) In order to verify expression amounts of IGF1 and β-catenin related with hair growth in skin tissue, each primary antibody to IGF1 and β-catenin was diluted to 1:50, added to tissue sections, and incubated for 12 hours at room temperature. The primary antibody was diluted with the mixture of 0.1% normal goat serum (Vector Laboratories Inc.) and 0.3% Triton X-100 (Sigma) in 0.1 M phosphate buffer solution (PB). The tissue sections were washed twice at room temperature for 15 minutes in 0.1M PB. Then, secondary antibody [biotinylated anti-rabbit IgG (Vector Laboratories Inc.)] was diluted to 1:200, added to the tissue sections, and incubated for 1 hour at room temperature. The tissue sections were washed twice at room temperature for 15 minutes in 0.1M PB, soaked in peroxidase-labeled ABC solution, and incubated for 1 hour at room temperature. The tissue sections were washed twice at room temperature for 15 minutes in 0.1M PB. Then, the tissue sections were reacted for 5 min with a solution in which 30 mg of 3-3′ diaminobenzidine was dissolved in 150 ml of 0.1M PB, added with concentration of 0.005% of hydrogen peroxide, and reacted for 5 min to occur color reaction. The tissue sections were washed several times at room temperature in 0.1M PB. […]

[6] = test system: β-catenin; assay: Immunohistochemical test on skin tissue, β-catenin; format: in vivo, mouse; conditions: 6 weeks s.c., FIG. 4
Description: as §3

[7] = test system: HGF (hepatocyte growth factor); assay: RT-PCR gene expression in back skin tissue, HGF; format: in vivo, mouse; conditions: 6 weeks s.c., compared to the negative control group, FIG. 5
Description: as §1, §2

[8] = test system: β-catenin; assay: RT-PCR gene expression in back skin tissue, β-catenin; format: in vivo, mouse; conditions: 6 weeks s.c., compared to the negative control group
Description: as §1, §2

[9] = cited from earlier work
[10] = test system: VEGF (vascular endothelial growth factor); assay: RT-PCR gene expression in back skin tissue, VEGF; format: in vivo, mouse; conditions: 6 weeks s.c., compared to the negative control group, FIG. 5
Description: as §1, §2

[11] = test system: GSK3β (glycogen synthase kinase 3β); assay: RT-PCR gene expression in back skin tissue, GSK3β; format: in vivo, mouse; conditions: 6 weeks s.c., compared to the negative control group
Description: as §1, §2

[12] = test system: FZDR (frizzled receptor 1); assay: RT-PCR gene expression in back skin tissue, FZDR; format: in vivo, mouse; conditions: 6 weeks s.c., compared to the negative control group
Description: as §1, §2

[13] = test system: KGF (keratocyte growth factor); assay: RT-PCR gene expression in back skin tissue, KGF; format: in vivo, mouse; conditions: 6 weeks s.c., compared to the negative control group, FIG. 5
Description: as §1, §2

[14] = test system: C57BL/6N mice; assay: Hair re-growth in hair-removed telogen mice, subcutaneous injection for 6 weeks (visual observation, hair length); format: in vivo, mouse; conditions: for hair growth state (visual): s.c. 0.8 mg/0.1 mL in corn oil daily
[15] = test system: Wnt10b; assay: RT-PCR gene expression in back skin tissue, Wnt10b; format: in vivo, mouse; conditions: 6 weeks s.c., compared to the negative control group
Description: as §1, §2

[16] = test system: Axin; assay: RT-PCR gene expression in back skin tissue, Axin; format: in vivo, mouse; conditions: 6 weeks s.c., compared to the negative control group
Description: as §1, §2

Nc1cc(N2CCCCC2)nc(N)[n+]1[O-] [minoxidil, reference compound]
body weight, difference between groups [1]: no significant differences | Anagen ratio ([2]; back skin at 6 weeks): 25% | anagen phases observed (number of cases) ([2]; back skin at 6 weeks): 1 case

C/C=C1/[C@H](O[C@@H]2O[C@H](CO)[C@@H](O)[C@H](O)[C@H]2O)OC=C(C(=O)OC)[C@H]1CC(=O)OCCc1ccc(O)c(O)c1 [oleuropein]
gene expression level of LRP5 [3]: significantly increased | gene expression level of IGF1 [4]: significantly increased | effect for increasing protein expression level of IGF1 compared with minoxidil [5]: more excellent effect | protein expression level of IGF1 ([5]; vs the negative group): much more highly detected | effect for increasing protein expression level of β-catenin compared with minoxidil [6]: more excellent effect | protein expression level of β-catenin ([6]; vs the negative group): much more highly detected | gene expression level of HGF [7]: significantly increased | gene expression level of β-catenin [8]: significantly increased | toxicity ([9]; mouse treated with 1 g/kg (body weight) for 7 days): no toxicity | LD50 ([9]; through various experiments): may not be calculated | gene expression level of VEGF [10]: significantly increased | gene expression level of GSK3β [11]: significantly decreased | gene expression level of FZDR (frizzled receptor 1) [12]: significantly increased | hair follicle length / appearance ([2]; back skin at 6 weeks): became longer and they were expressed into skin | Histological diagnosis of hair growth cycle, individual animals (Animal ID 1-4) ([2]; back skin at 6 weeks after s.c. injection): Telogen; also recorded: Anagen | Anagen ratio ([2]; back skin at 6 weeks): 50% | anagen phases observed (number of cases) ([2]; back skin at 6 weeks): 2 case | diameter of the hair follicles ([2]; image analysis, compared to the negative control group): significantly increased | number of hair follicles ([2]; optical microscope 40× magnification, compared to the negative control group, FIG. 3): significantly increased | gene expression level of KGF [13]: significantly increased | effect for promoting hair growth (visual) compared with minoxidil ([14]; 6 weeks s.c. injection, FIG. 1): more excellent effect for promoting hair growth than that of the minoxidil | effect for stimulating hair growth (hair length) compared with minoxidil ([14]; 6 weeks s.c. injection, FIG. 2): excellent effect for stimulating hair growth than that of the minoxidil | hair length ([14]; at 3 weeks, p<0.05): significantly increased | hair growth state (visual) ([14]; at 3 weeks): hairs were grown | hair length, increase compared to the negative control group ([14]; at 6 weeks): 62% | hair growth state (visual) ([14]; at 6 weeks): hairs were vigorously grown | gene expression level of Wnt10b [15]: significantly increased | gene expression level of Axin [16]: significantly decreased
